Reference: patent US8119624B2, “Fused phenyl amido heterocyclic compounds” (Pfizer Inc., priority 2006, dated 2012)
pEC50: −log10 of the molar value. Like-named read-outs stand apart in the source and are kept apart here.

Target: T1, Full-length glucokinase (beta cell isoform) (Homo sapiens, UniProt P35557)
T1 construct: Full-length glucokinase (beta cell isoform) was His-tagged at N-terminus; His tag (N); made in house
T1 sequence (P35557 1-465): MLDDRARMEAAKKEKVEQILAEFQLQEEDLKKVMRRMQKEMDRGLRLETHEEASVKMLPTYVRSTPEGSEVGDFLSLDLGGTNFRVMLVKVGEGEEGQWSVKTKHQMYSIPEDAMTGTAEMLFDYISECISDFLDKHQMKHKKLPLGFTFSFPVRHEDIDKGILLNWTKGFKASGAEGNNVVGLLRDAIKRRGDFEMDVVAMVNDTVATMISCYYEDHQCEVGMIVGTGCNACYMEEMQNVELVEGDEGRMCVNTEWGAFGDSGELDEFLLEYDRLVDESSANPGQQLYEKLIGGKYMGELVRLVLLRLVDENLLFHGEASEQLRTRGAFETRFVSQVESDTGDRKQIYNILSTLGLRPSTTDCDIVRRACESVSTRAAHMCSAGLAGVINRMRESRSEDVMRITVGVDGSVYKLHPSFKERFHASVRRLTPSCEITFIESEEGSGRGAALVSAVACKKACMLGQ
Test: Glucokinase biochemical assay (PK/LDH-coupled, NADH depletion at 340 nm): % activation, EC50, % max activation
Conditions: 5 mM glucose; for activation at 10 µM: read-out: % Activation at 10 uM; for pEC50: read-out: EC50; for Emax: fitted maximum activation, read-out: % Max Activation
Method in brief: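 N-terminally His-tagged full-length human beta-cell glucokinase, room temperature, 5 mM glucose, 1 mM ATP, PK/LDH-coupled with 0.7 mM NADH, 1% DMSO final. Initial velocity from the 200–900 s slope of A340 decline. % activation = (Va/Vo−1)×100, measured across compound concentrations.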

[1] = 10 uM compound, % Activation=(Va/Vo−1)×100
[2] = compound at 10 uM, 1 mM ATP, room temperature

Compound | activation at 10 µM [1] [%] | pEC50 (GK activation) | Emax [%] | pEC50 (1 mM ATP, room temperature) | activation at 10 µM [2] [%] | Emax (1 mM ATP) [%]
CO[C@H]1CCN(C(=O)c2ccc(Oc3cc(C(=O)Nc4ccn(C)n4)cc4c3CC(C)(C)O4)cc2F)C1 [Example 60, 4-[3-Fluoro-4-((S)-3-methoxy-pyrrolidine-1-carbonyl)-phenoxy]-2,2-dimethyl-2,3-dihydro-benzofuran-6-carboxylic acid(1-methyl-1H-pyrazol-3-yl)-amide] | 172 | 6.57 | 167 | – | – | –
CNC(=O)c1ccc(Oc2cc(C(=O)Nc3ccn(C)n3)cc3c2CC(C)(C)O3)cn1 [Example 166, 5-[2,2-Dimethyl-6-(1-methyl-1H-pyrazol-3-ylcarbamoyl)-2,3-dihydro-benzofuran-4-yloxy]-pyridine-2-carboxylic acid methylamide] | 203 | 6.39 | 212 | – | – | –
CN(C)C1CN(C(=O)c2ccc(Oc3cc(C(=O)Nc4ccn(C)n4)cc4c3CC(C)(C)O4)cc2)C1 [Example 49, 4-[4-(3-Dimethylamino-azetidine-1-carbonyl)-phenoxy]-2,2-dimethyl-2,3-dihydro-benzofuran-6-carboxylic acid(1-methyl-1H-pyrazol-3-yl)-amide] | 133 | 6.34 | 147 | – | – | –
CC(C)CN1CCc2c(Oc3ccc(C(=O)N(C)C)c(F)c3)cc(C(=O)Nc3ccn(C)n3)cc2C1=O [Example 392, 5-(4-(Dimethylcarbamoyl)-3-fluorophenoxy)-2-isobutyl-N-(1-methyl-1H-pyrazol-3-yl)-1-oxo-1,2,3,4-tetrahydroisoquinoline-7-carboxamide] | – | – | – | < 5.00 | 48.6 | –
CN(C)S(=O)(=O)c1ccc(Oc2cc(C(=O)Nc3ccn(C)n3)cc3c2CC(C)(C)O3)cc1 [Example 122, 4-(4-Dimethylsulfamoyl-phenoxy)-2,2-dimethyl-2,3-dihydro-benzofuran-6-carboxylic acid (1-methyl-1H-pyrazol-3-yl)-amide] | 184 | 7.00 | 159 | – | – | –
Cn1ccc(NC(=O)c2cc(Oc3ccc(C(=O)N4CC(F)(F)C4)c(F)c3)c3c(c2)OC(C)(C)C3)n1 [Example 52, 4-[4-(3,3-Difluoro-azetidine-1-carbonyl)-3-fluoro-phenoxy]-2,2-dimethyl-2,3-dihydro-benzofuran-6-carboxylic acid(1-methyl-1H-pyrazol-3-yl)-amide] | 136 | 6.55 | 151 | – | – | –
CC(C)Oc1cc(C(=O)Nc2ccn(C)n2)cc2c1CC(CO)O2 (stereo not drawn) [Example 215, 2-Hydroxymethyl-4-isopropoxy-2,3-dihydro-benzofuran-6-carboxylic acid (1-methyl-1H-pyrazol-3-yl)-amide] | 16.7 | – | – | – | – | –
CN(C)C(=O)c1ccc(Oc2cc(C(=O)Nc3ccc(CO)cn3)cc3c2CC(C)(C)O3)cc1 [Example 155, 4-(4-Dimethylcarbamoyl-phenoxy)-2,2-dimethyl-2,3-dihydro-benzofuran-6-carboxylic acid (5-hydroxymethyl-pyridin-2-yl)-amide] | 38.4 | 7.05 | 43 | – | – | –
Cc1ccc(NC(=O)c2cc(Oc3ccc(S(C)(=O)=O)cc3)c3c(c2)C(=O)N(C)C3)nc1 [Example 376, 2-Methyl-N-(5-methylpyridin-2-yl)-7-(4-(methylsulfonyl)-phenoxy)-3-oxoisoindoline-5-carboxamide] | – | – | – | 5.19 | 73.1 | 90
Cn1ncc(NC(=O)c2cc(Oc3ccc(S(C)(=O)=O)c(F)c3)c3c(c2)OC(C)(C)C3)n1 [Example 117, 4-(3-Fluoro-4-methanesulfonyl-phenoxy)-2,2-dimethyl-2,3-dihydro-benzofuran-6-carboxylic acid (2-methyl-2H-[1,2,3]triazol-4-yl)-amide] | 325 | 6.82 | 283 | – | – | –
COCc1cc2c(Oc3ccc(S(C)(=O)=O)cc3)cc(C(=O)Nc3ccn(C)n3)cc2o1 [Example 310, 2-(Methoxymethyl)-N-(1-methyl-1H-pyrazol-3-yl)-4-[4-(methylsulfonyl)-phenoxy]-1-benzofuran-6-carboxamide] | 118 | 6.14 | 137 | – | – | –
